Read-outs that look alike come from different tables or passages of the source.
Assays:
OCT1 transport protein [1] = target: T1, OCT1 transport protein (Rattus norvegicus, UniProt Q63089); conditions: xenopus oocytes expressing oct1
T1 sequence (Q63089 1-556): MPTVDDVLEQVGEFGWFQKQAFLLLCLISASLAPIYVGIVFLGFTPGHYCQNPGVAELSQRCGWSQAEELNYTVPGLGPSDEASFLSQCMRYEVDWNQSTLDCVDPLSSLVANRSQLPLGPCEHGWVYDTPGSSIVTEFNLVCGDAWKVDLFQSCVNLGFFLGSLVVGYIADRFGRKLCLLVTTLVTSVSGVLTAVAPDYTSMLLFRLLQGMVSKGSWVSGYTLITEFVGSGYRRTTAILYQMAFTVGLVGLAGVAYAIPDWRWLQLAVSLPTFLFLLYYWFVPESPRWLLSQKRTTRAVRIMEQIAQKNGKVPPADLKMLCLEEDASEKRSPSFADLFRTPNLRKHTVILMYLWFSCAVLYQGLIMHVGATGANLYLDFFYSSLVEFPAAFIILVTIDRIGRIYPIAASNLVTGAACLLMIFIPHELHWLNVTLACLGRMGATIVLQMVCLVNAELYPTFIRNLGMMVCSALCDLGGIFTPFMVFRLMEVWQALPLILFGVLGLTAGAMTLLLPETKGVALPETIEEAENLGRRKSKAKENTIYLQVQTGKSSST

[2] = target: MPP uptake in hepatocytes; conditions: cultured hepatocytes; cited from earlier work
OCT1 transport protein [3] = target: T1, OCT1 transport protein; experiment: Inhibition of ^14 C-TEA uptake in Xenopus laevis oocytes injected with OCT1 cRNA
[4] = test system: LLC-PK1 cells, luminal membrane; conditions: read-out: Ki for transport of TEA across the luminal membrane, LLC-PK1 cells; cited from earlier work
[5] = test system: LLC-PK1 cells, basolateral membrane; conditions: estimated, read-out: Ki for transport of TEA across the basolateral membrane, LLC-PK1 cells; cited from earlier work
OCT1 transport protein [6] = target: T1, OCT1 transport protein; experiment: cell-based
[7] = target: basolateral membrane of rat proximal renal tubules; conditions: microperfusion experiments; previous investigations; read-out: Ki for basolateral uptake of TEA into rat proximal renal tubules; cited from earlier work
luminal uptake of TEA = conditions: previous investigations, cited from earlier work
OCT1 transport protein [8] = target: T1, OCT1 transport protein; conditions: 8 ng OCT1 cRNA injected
[9] = test system: neuronal monoamine transport protein in synaptic vesicles; conditions: cited from earlier work
[10] = Ki for inhibition of OCT1-elicited ^14 C-TEA uptake

SMILES: C[n+]1ccc(-c2ccccc2)cc1 [1-Methyl-4-phenylpyridinium]
- Ki (OCT1 transport protein [1]): 13 ± 2 µM

SMILES: CC[n+]1c(C=C2C=C(C)N=C(c3ccccc3)N2C)ccc2ccccc21 [Cyanine 863, 1-ethyl-2([1,4-dimethyl-2-phenyl-6-pyrimidinylidene]methyl)quinoliniumchloride]
- Ki [2]: 0.1 µM
- Ki (OCT1 transport protein [3]; [10]): 0.00013 mM

SMILES: CCN1C(=Cc2ccc3ccccc3[n+]2CC)C=Cc2ccccc21 [Decynium 22]
- Ki (OCT1 transport protein [1]): 0.36 ± 0.08 µM
- Ki [2]: 0.23 µM
- Ki [4]: 0.0056 µM
- Ki [5]: > 0.1 µM
- Ki (OCT1 transport protein [6]): 0.4 µM

SMILES: CNCCCN1c2ccccc2CCc2ccccc21 [Desipramine]
- inhibition of OCT1-elicited ^14 C-TEA uptake (in words) (OCT1 transport protein [3]): inhibited

SMILES: CC(C)C(c1ccccc1)C(O)CC[N+]1(C)CCCCC1 (centres unmarked) [Mepiperphenidol]
- Ki (OCT1 transport protein [1]): 5.2 ± 0.3 µM

SMILES: C[n+]1cccc(C(N)=O)c1 [N^1 -Methylnicotinamide]
- Ki [7]: 540 µM
- Ki (luminal uptake of TEA; read-out: Ki for luminal uptake of TEA (printed in nM)): 8.3e+06 nM
- inhibition by NMN of OCT1-induced ^14 C-TEA uptake (in words) (OCT1 transport protein [3]): able to inhibit
- inhibition of OCT1-elicited ^14 C-TEA uptake (in words) (OCT1 transport protein [3]): inhibited
- Ki (OCT1 transport protein [3]; [10]): 1 ± 0.2 mM
- Ki (OCT1 transport protein [3]; Ki for inhibition of OCT1-elicited ^14 C-TEA uptake (mM, text)): ~1 mM

SMILES: COc1cc(C(O)CNC(C)C)ccc1O (centres unmarked) [O-Methylisoprenaline]
- Ki (OCT1 transport protein [1]): 43 ± 5 µM
- Ki [2]: 78 µM
- inhibition of OCT1-elicited ^14 C-TEA uptake (in words) (OCT1 transport protein [3]; oocytes injected with OCT1 cRNA): inhibited

SMILES: C=C[C@H]1C[N@@]2CC[C@H]1C[C@H]2[C@H](O)c1ccnc2ccc(OC)cc12 [Quinine]
- inhibition of expressed ^3 H-MPP uptake (in words) (OCT1 transport protein [8]): inhibited

SMILES: COC(=O)[C@H]1[C@H]2C[C@@H]3c4[nH]c5cc(OC)ccc5c4CCN3C[C@H]2C[C@@H](OC(=O)c2cc(OC)c(OC)c(OC)c2)[C@@H]1OC [Reserpine]
- inhibiting concentration, neuronal monoamine transport protein in synaptic vesicles [9]: sub-nanomolar
- effect on OCT1-elicited transport (OCT1 transport protein [3]; 5 μM): no effect

SMILES: C[N+](C)(C)C [Tetramethylammonium]
- Ki [7]: 1400 µM
- Ki (luminal uptake of TEA; read-out: Ki for luminal uptake of TEA): 7e+07 nM
- inhibition of OCT1-elicited ^14 C-TEA uptake (in words) (OCT1 transport protein [3]): inhibited

SMILES: CCCCC[N+](CCCCC)(CCCCC)CCCCC [Tetrapentylammonium]
- Ki (OCT1 transport protein [1]): 0.43 ± 0.09 µM
